{"source": "PubChem BioAssay AID270", "about": "(DTP/NCI, 2004)", "tested_on": "BDF1 mice, s.c. Lewis lung carcinoma, T/C %", "test": "NCI In Vivo Anticancer Drug Screen. Data for tumor model Lewis Lung Carcinoma (subcutaneous) in B6D2F1 (BDF1) mice", "protocol": "The antitumor activity of compounds was measured in mice bearing transplantable tumors. Survival or tumor size were measured and the results are expressed as the measurement made in the treated group (T) divided by the measurement made in the vehicle treated control group (C). The tumor model used in this assay is Lewis Lung Carcinoma (subcutaneous) in B6D2F1 (BDF1) mice", "note": "“And” between values parts separate entries of the source, which are not always exact repeats. Identical values can stand only once. Inconclusive results are not listed."}
{"smiles": "O=C1c2ccccc2C(=O)c2c(NCCNCCO)ccc(NCCNCCO)c21", "values": [{"measurement": "T/C", "setting": "endpoint: median survival time, dose: 0.25 mg/kg/injection, schedule: Q01DX009 (ip), vehicle: Klucel (hydroxypropylcellulose) (HPC), higher = longer survival", "result": "120 % of control"}, {"measurement": "T/C", "setting": "endpoint: median survival time, dose: 0.25 mg/kg/injection, schedule: Q01DX009 (ip), vehicle: water, higher = longer survival", "result": "106 % of control"}, {"measurement": "T/C", "setting": "endpoint: median survival time, dose: 0.5 mg/kg/injection, schedule: Q01DX009 (ip), vehicle: Klucel (hydroxypropylcellulose) (HPC), higher = longer survival", "result": "123 % of control"}, {"measurement": "T/C", "setting": "endpoint: median survival time, dose: 0.5 mg/kg/injection, schedule: Q01DX009 (ip), vehicle: saline with Tween-80, higher = longer survival", "result": "86 % of control"}, {"measurement": "T/C", "setting": "endpoint: median survival time, dose: 0.5 mg/kg/injection, schedule: Q01DX009 (ip), vehicle: saline, higher = longer survival", "result": "114 % of control"}, {"measurement": "T/C", "setting": "endpoint: median survival time, dose: 0.5 mg/kg/injection, schedule: Q01DX009 (ip), vehicle: water, higher = longer survival", "result": "109 % of control"}, {"measurement": "T/C", "setting": "endpoint: median survival time, dose: 1.0 mg/kg/injection, schedule: Q01DX009 (ip), vehicle: Klucel (hydroxypropylcellulose) (HPC), higher = longer survival", "result": "101 % of control"}, {"measurement": "T/C", "setting": "endpoint: median survival time, dose: 1.0 mg/kg/injection, schedule: Q01DX009 (ip), vehicle: saline with Tween-80, higher = longer survival", "result": "115 % of control"}, {"measurement": "T/C", "setting": "endpoint: median survival time, dose: 1.0 mg/kg/injection, schedule: Q01DX009 (ip), vehicle: saline, higher = longer survival", "result": "92 % of control and 94 % of control and 108 % of control"}, {"measurement": "T/C", "setting": "endpoint: median survival time, dose: 1.0 mg/kg/injection, schedule: Q01DX009 (ip), vehicle: water, higher = longer survival", "result": "89 % of control"}, {"measurement": "T/C", "setting": "endpoint: median survival time, dose: 2.0 mg/kg/injection, schedule: Q01DX009 (ip), vehicle: Klucel (hydroxypropylcellulose) (HPC), higher = longer survival", "result": "89 % of control"}, {"measurement": "T/C", "setting": "endpoint: median survival time, dose: 2.0 mg/kg/injection, schedule: Q01DX009 (ip), vehicle: acid diluted with saline, higher = longer survival", "result": "89 % of control"}, {"measurement": "T/C", "setting": "endpoint: median survival time, dose: 2.0 mg/kg/injection, schedule: Q01DX009 (ip), vehicle: saline with Tween-80, higher = longer survival", "result": "95 % of control"}, {"measurement": "T/C", "setting": "endpoint: median survival time, dose: 2.0 mg/kg/injection, schedule: Q01DX009 (ip), vehicle: saline, higher = longer survival", "result": "102 % of control"}, {"measurement": "T/C", "setting": "endpoint: median survival time, dose: 2.0 mg/kg/injection, schedule: Q01DX009 (ip), vehicle: water, higher = longer survival", "result": "96 % of control and 115 % of control"}, {"measurement": "T/C", "setting": "endpoint: median survival time, dose: 4.0 mg/kg/injection, schedule: Q01DX009 (ip), vehicle: acid diluted with saline, higher = longer survival", "result": "95 % of control"}, {"measurement": "T/C", "setting": "endpoint: median survival time, dose: 4.0 mg/kg/injection, schedule: Q01DX009 (ip), vehicle: other, higher = longer survival", "result": "106 % of control"}, {"measurement": "T/C", "setting": "endpoint: median survival time, dose: 4.0 mg/kg/injection, schedule: Q01DX009 (ip), vehicle: saline, higher = longer survival", "result": "91 % of control"}, {"measurement": "T/C", "setting": "endpoint: median survival time, dose: 4.0 mg/kg/injection, schedule: Q01DX009 (ip), vehicle: water, higher = longer survival", "result": "88 % of control and 105 % of control"}, {"measurement": "T/C", "setting": "endpoint: median survival time, dose: 8.0 mg/kg/injection, schedule: Q01DX009 (ip), vehicle: Klucel (hydroxypropylcellulose) (HPC), higher = longer survival", "result": "109 % of control and 120 % of control"}, {"measurement": "T/C", "setting": "endpoint: median survival time, dose: 8.0 mg/kg/injection, schedule: Q01DX009 (ip), vehicle: acid diluted with saline, higher = longer survival", "result": "90 % of control"}, {"measurement": "T/C", "setting": "endpoint: median survival time, dose: 8.0 mg/kg/injection, schedule: Q01DX009 (ip), vehicle: other, higher = longer survival", "result": "103 % of control"}, {"measurement": "T/C", "setting": "endpoint: median survival time, dose: 8.0 mg/kg/injection, schedule: Q01DX009 (ip), vehicle: saline, higher = longer survival", "result": "95 % of control"}, {"measurement": "T/C", "setting": "endpoint: median survival time, dose: 8.0 mg/kg/injection, schedule: Q01DX009 (ip), vehicle: water, higher = longer survival", "result": "88 % of control"}, {"measurement": "T/C", "setting": "endpoint: median survival time, dose: 10.0 mg/kg/injection, schedule: Q## X004 (ip), vehicle: saline, higher = longer survival", "result": "97 % of control"}, {"measurement": "T/C", "setting": "endpoint: median survival time, dose: 16.0 mg/kg/injection, schedule: Q01DX009 (ip), vehicle: Klucel (hydroxypropylcellulose) (HPC), higher = longer survival", "result": "107 % of control"}, {"measurement": "T/C", "setting": "endpoint: median survival time, dose: 16.0 mg/kg/injection, schedule: Q01DX009 (ip), vehicle: acid diluted with saline, higher = longer survival", "result": "100 % of control"}, {"measurement": "T/C", "setting": "endpoint: median survival time, dose: 16.0 mg/kg/injection, schedule: Q01DX009 (ip), vehicle: saline, higher = longer survival", "result": "99 % of control"}, {"measurement": "T/C", "setting": "endpoint: median survival time, dose: 16.0 mg/kg/injection, schedule: Q01DX009 (ip), vehicle: water, higher = longer survival", "result": "102 % of control"}, {"measurement": "T/C", "setting": "endpoint: median survival time, dose: 20.0 mg/kg/injection, schedule: Q## X004 (ip), vehicle: saline, higher = longer survival", "result": "93 % of control"}, {"measurement": "T/C", "setting": "endpoint: median survival time, dose: 40.0 mg/kg/injection, schedule: Q## X004 (ip), vehicle: saline, higher = longer survival", "result": "93 % of control"}]}
{"smiles": "CCOC(N)=O", "values": [{"measurement": "T/C", "setting": "endpoint: mean tumor weight, dose: 60.0 mg/kg/injection, schedule: Q01DX011 (ip), vehicle: saline, higher = larger tumour", "result": "119 % of control"}, {"measurement": "T/C", "setting": "endpoint: mean tumor weight, dose: 100.0 mg/kg/injection, schedule: Q01DX011 (ip), vehicle: saline, higher = larger tumour", "result": "90 % of control"}, {"measurement": "T/C", "setting": "endpoint: mean tumor weight, dose: 125.0 mg/kg/injection, schedule: Q01DX011 (ip), vehicle: saline, higher = larger tumour", "result": "123 % of control"}, {"measurement": "T/C", "setting": "endpoint: mean tumor weight, dose: 200.0 mg/kg/injection, schedule: Q01DX011 (ip), vehicle: saline, higher = larger tumour", "result": "60 % of control and 67 % of control and 69 % of control"}, {"measurement": "T/C", "setting": "endpoint: mean tumor weight, dose: 250.0 mg/kg/injection, schedule: Q01DX011 (ip), vehicle: saline, higher = larger tumour", "result": "62 % of control"}, {"measurement": "T/C", "setting": "endpoint: mean tumor weight, dose: 400.0 mg/kg/injection, schedule: Q01DX011 (ip), vehicle: saline, higher = larger tumour", "result": "33 % of control and 41 % of control and 56 % of control"}, {"measurement": "T/C", "setting": "endpoint: mean tumor weight, dose: 600.0 mg/kg/injection, schedule: Q01DX011 (ip), vehicle: saline, higher = larger tumour", "result": "38 % of control"}]}
